Data published in US20170370929A1, “POSITIVE ALLOSTERIC MODULATORS OF THE DELTA-OPIOID RECEPTOR” (BRISTOL-MYERS SQUIBB COMPANY, priority 2014, published 2017).

Tests used:
δ receptor = δ receptor (Homo sapiens, UniProt P41143); experiment: PathHunter β-arrestin recruitment assay in CHO-OPRD1 cells; assay type: cell-based
μ receptor = μ receptor (Homo sapiens, UniProt P35372); experiment: PathHunter β-arrestin recruitment assay in CHO-OPRM1 cells; assay type: cell-based; conditions: PAM mode, up to the highest concentration tested (10 μM)
Chain of μ receptor (P35372 whole entry): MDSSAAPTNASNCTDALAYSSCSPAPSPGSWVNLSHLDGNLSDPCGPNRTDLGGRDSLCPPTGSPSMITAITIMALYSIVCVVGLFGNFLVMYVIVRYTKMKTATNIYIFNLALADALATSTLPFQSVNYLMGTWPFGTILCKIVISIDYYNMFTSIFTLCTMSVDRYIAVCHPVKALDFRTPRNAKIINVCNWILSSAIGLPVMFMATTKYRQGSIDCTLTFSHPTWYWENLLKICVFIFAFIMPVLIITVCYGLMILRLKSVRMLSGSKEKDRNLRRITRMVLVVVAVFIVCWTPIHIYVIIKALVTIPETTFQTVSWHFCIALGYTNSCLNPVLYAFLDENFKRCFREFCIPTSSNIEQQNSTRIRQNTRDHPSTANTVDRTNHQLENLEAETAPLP

Chain of δ receptor (P41143 whole entry): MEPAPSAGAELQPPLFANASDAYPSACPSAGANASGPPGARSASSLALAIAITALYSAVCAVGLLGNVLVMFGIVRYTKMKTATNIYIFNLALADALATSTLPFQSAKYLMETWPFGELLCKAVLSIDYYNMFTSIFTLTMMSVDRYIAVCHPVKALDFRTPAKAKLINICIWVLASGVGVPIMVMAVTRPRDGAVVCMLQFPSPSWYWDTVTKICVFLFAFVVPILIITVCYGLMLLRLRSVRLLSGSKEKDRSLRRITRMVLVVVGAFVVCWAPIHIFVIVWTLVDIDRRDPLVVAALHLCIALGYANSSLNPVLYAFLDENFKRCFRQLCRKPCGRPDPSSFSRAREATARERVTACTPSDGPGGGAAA

Row | SMILES | EC50 (δ receptor; PAM mode, in the presence of an EC20 of leu-enkephalin, CHO-OPRD1 cells) [nM] | selectivity compared with PAM activity at the μ receptor (δ receptor; β-arrestin recruitment assay, δ versus μ receptor PAM activity) [fold] | PAM activity at the μ receptor (μ receptor) | PAM activity at the δ receptor (in words) (δ receptor; PAM mode, β-arrestin recruitment)
1 | CC1(C)CC(=O)C2=C(C1)OC1=C(C(=O)CC(C)(C)C1)C2c1ccc(OCc2ccccc2)cc1 [Analog 1] | 200 | 30 |  | 
2 | CC1(C)CC(=O)C2=C(C1)OC1=C(C(=O)CC(C)(C)C1)C2c1ccc(OCc2ccccc2Br)cc1 [Analog 10, 9-(4-((2-bromobenzyl)oxy)phenyl)-3,3,6,6-tetramethyl-3,4,5,6,7,9-hexahydro-1H-xanthene-1,8(2H)-dione] |  |  | no observable PAM activity | equipotent PAM activity to 2
